Columns and labels:
Type in all cases: functional
HCT-15 = experiment: In vitro growth inhibitory activity against human HCT-15 cancer cell line
K562 = experiment: In vitro growth inhibitory activity against human K-562 cancer cell line
MOLT-4 = experiment: In vitro growth inhibitory activity against human MOLT-4 cancer cell line
MCF7 = experiment: In vitro growth inhibitory activity against human MCF-7 cancer cell line
MDA-N = experiment: In vitro growth inhibitory activity against human MDA-N cancer MDA-N cell line
NCI-H23 = experiment: In vitro growth inhibitory activity against human NCI-H23 cancer cell line
SR = experiment: In vitro growth inhibitory activity against human SR cancer cell line
SF-295 = experiment: In vitro growth inhibitory activity against human SF-295 cancer cell line

GI50 (HCT-15) | GI50 (K562) | GI50 (MOLT-4) | GI50 (MCF7) | GI50 (NCI-H23) | SMILES | GI50 (MDA-N) | GI50 (SR) | GI50 (SF-295)
17.8 µM | 5.61 µM | 31.2 µM | 27.2 µM | 25.8 µM | Brc1ccc2c(-c3nc(-c4c[nH]c5ccccc45)cs3)c[nH]c2c1 | 31.5 µM | 12.2 µM | 9.23 µM
15.2 µM | 18.8 µM | 19.9 µM | 16.7 µM | 14.5 µM | Brc1ccc2c(-c3csc(-c4c[nH]c5ccccc45)n3)c[nH]c2c1 | 19.2 µM | 6.36 µM | 14.6 µM
> 100 µM | 3.27 µM | 5.31 µM | > 100 µM | > 100 µM | c1ccc2c(-c3csc(-c4c[nH]c5ccccc45)n3)c[nH]c2c1 | 83 µM | 1.77 µM | 33.6 µM
8.5 µM | 4.69 µM | 5.8 µM | 6.46 µM | 14.1 µM | Brc1ccc2c(-c3csc(-c4c[nH]c5cc(Br)ccc45)n3)c[nH]c2c1 | 2.94 µM | 3.4 µM | 4.81 µM
